Structures are written as SMILES.

The record followed here is PMC6272846, “Synthesis and p38 Inhibitory Activity of Some Novel Substituted N,N′-Diarylurea Derivatives” (Molecules, 2016).

Sequence of MAPK14/p38α (Q16539 whole entry): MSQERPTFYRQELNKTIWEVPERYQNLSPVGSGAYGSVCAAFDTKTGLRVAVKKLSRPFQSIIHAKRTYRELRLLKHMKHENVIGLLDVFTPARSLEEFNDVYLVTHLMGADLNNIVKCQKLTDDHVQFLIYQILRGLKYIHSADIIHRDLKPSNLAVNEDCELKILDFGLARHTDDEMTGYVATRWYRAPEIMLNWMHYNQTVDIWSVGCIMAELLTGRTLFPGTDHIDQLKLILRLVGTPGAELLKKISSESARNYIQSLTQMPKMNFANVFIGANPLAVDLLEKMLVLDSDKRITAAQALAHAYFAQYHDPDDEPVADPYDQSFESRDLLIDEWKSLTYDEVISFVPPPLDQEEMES

One test concerns MAPKAPK2. In words: Inhibition of MAPKAPK2 in GFP-MAPKAPk2_BHK cell model (nuclear translocation). In kind it is cell-based. The settings on record: GFP-MAPKAPk2_BHK cells. On the procedure: In order to study p38α inhibition in a cell system, we investigated the ability of all compounds to inhibit the phosphorylation of mitogen-activated protein-kinase-activated protein kinase 2 (MAPKAPK2). Each compound was prepared at […] concentrations (1, 3, 10 and 30 nM, 0.1 and 0.3 μM), and the percentages of inhibition were calculated from the numbers of cells after treatment with the different compounds.
GFP-MAPKAPk2_BHK cells were cultured in 96-well plates (2.0 × 10^4/100 μL/well) containing 10% heat-inactivated foetal bovine serum (FBS) and 1 mg/mL G418 at 37 °C in humidified air containing 5% CO2 for 18–24 h. The cells were washed with nutrient solution (100 μL/well) and changed to the compound liquid (100 μL/well). Experiments were set up with the control, and the compound was repeated at each concentration in three wells. The cells were cultured in 96-well plates at 37 °C in humidified air containing 5% CO2 for 90 min. The cells were washed with the dye solution (20 μL/well), and the dyed cells were held for 1 hour at room temperature in the dye liquid. Analysis of nuclear translocation and calculation of the ability of the compounds to inhibit nuclear translocation was performed using the IN Cell Analyzer 1000 Nuclear Trafficking Analysis Module System (GE, Madison, WI, USA). The cultured cells were treated with the obtained compounds in […] concentration grads (1, 3, 10 and 30 nM, 0.1 and 0.3 μM). The inhibitory percentage can be calculated using the amounts of cells after the disposition of the different compounds.
Compound `COc1ccc(-n2nc(C(C)(C)C)cc2NC(=O)Nc2ccc(Oc3ccc4[nH]ncc4c3)c3c2OCC=C3)cc1` [26d, 1-(5-((1H-Indazol-5-yl)oxy)-2H-chromen-8-yl)-3-(3-(tert-butyl)-1-(4-methoxyphenyl)-1H-pyrazol-5-yl)urea] yielded an IC50 of 0.0698 ± 0.00208 µM. Still for that read-out and setting: under `Cc1ccc(-n2nc(C(C)(C)C)cc2NC(=O)Nc2ccc(Oc3ccc4[nH]ncc4c3)c3c2OCC=C3)cc1` [26a, 1-(5-((1H-Indazol-5-yl)oxy)-2H-chromen-8-yl)-3-(3-(tert-butyl)-1-(p-tolyl)-1H-pyrazol-5-yl)urea] stands 0.0607 ± 0.00231 µM; under `CC(C)(C)c1cc(NC(=O)NCc2cc(F)ccc2Oc2ccc3[nH]ncc3c2)n(-c2ccc([N+](=O)[O-])cc2)n1` [25i, 1-(2-((1H-Indazol-5-yl)oxy)-5-fluorobenzyl)-3-(3-(tert-butyl)-1-(4-nitrophenyl)-1H-pyrazol-5-yl)urea], 0.00383 ± 0.00112 µM; under `CC(C)(C)c1cc(NC(=O)Nc2ccc(Oc3ccc4[nH]ncc4c3)c3c2OCC=C3)n(-c2ccc(S(N)(=O)=O)cc2)n1` [26c, 4-(5-(3-(5-((1H-Indazol-5-yl)oxy)-2H-chromen-8-yl)ureido)-3-(tert-butyl)-1H-pyrazol-1-yl)benzenesulfonamide], 0.2457 ± 0.00209 µM. In the case of `CC(C)(C)c1cc(NC(=O)Nc2ccc(Oc3ccc4[nH]ncc4c3)c3c2OCC=C3)n(-c2ccc(F)cc2)n1` [26e, 1-(5-((1H-Indazol-5-yl)oxy)-2H-chromen-8-yl)-3-(3-(tert-butyl)-1-(4-fluorophenyl)-1H-pyrazol-5-yl)urea], the IC50 was found to be 0.038 ± 0.00124 µM. As to `CC(C)(C)c1cc(NC(=O)Nc2ccc(Oc3ccc4[nH]ncc4c3)c3c2OCC=C3)n(-c2ccc([N+](=O)[O-])cc2)n1` [26f, 1-(5-((1H-Indazol-5-yl)oxy)-2H-chromen-8-yl)-3-(3-(tert-butyl)-1-(4-nitrophenyl)-1H-pyrazol-5-yl)urea], the IC50 was 0.0412 ± 0.00146 µM.

The same test, now with this note: GFP-MAPKAPk2_BHK cells; bound given in µM.
Compound `Cc1cccc(-n2nc(C(C)(C)C)cc2NC(=O)Nc2ccccc2Oc2ccc3[nH]ncc3c2)c1` [29c, 1-(2-((1H-Indazol-5-yl)oxy)phenyl)-3-(3-(tert-butyl)-1-(m-tolyl)-1H-pyrazol-5-yl)urea] registered a concentration for half-maximal inhibition (IC50) of more than 10 µM. Compound `CC(C)(C)c1cc(NC(=O)Nc2ccccc2OCCN2CCOCC2)n(-c2ccc(F)cc2)n1` [28g, 1-(3-(tert-Butyl)-1-(4-fluorophenyl)-1H-pyrazol-5-yl)-3-(2-(2-morpholinoethoxy)phenyl)urea] yielded an IC50 of more than 10 µM. Regarding `COc1ccc(-n2nc(C(C)(C)C)cc2NC(=O)Nc2ccccc2Oc2ccc3[nH]ncc3c2)cc1` [29d, 1-(2-((1H-Indazol-5-yl)oxy)phenyl)-3-(3-(tert-butyl)-1-(4-methoxyphenyl)-1H-pyrazol-5-yl)urea], the IC50 was more than 10 µM.

Compound `CC(C)(C)c1cc(NC(=O)Nc2ccccc2OCCN2CCOCC2)n(-c2ccc([N+](=O)[O-])cc2)n1` [28h, 1-(3-(tert-Butyl)-1-(4-nitrophenyl)-1H-pyrazol-5-yl)-3-(2-(2-morpholinoethoxy)phenyl)urea] yielded an IC50 of more than 10 µM. Compound `CC(C)(C)c1cc(NC(=O)Nc2ccccc2Oc2ccc3[nH]ncc3c2)n(-c2ccc(S(N)(=O)=O)cc2)n1` [29i, 4-(5-(3-(2-((1H-Indazol-5-yl)oxy)phenyl)ureido)-3-(tert-butyl)-1H-pyrazol-1-yl)benzenesulfonamide] gave a concentration for half-maximal inhibition (IC50) of more than 10 µM. Regarding `Cc1cccc(-n2nc(C(C)(C)C)cc2NC(=O)Nc2ccccc2OCCN2CCOCC2)c1` [28c, 1-(3-(tert-Butyl)-1-(m-tolyl)-1H-pyrazol-5-yl)-3-(2-(2-morpholinoethoxy)phenyl)urea], the IC50 was more than 10 µM. In turn, `CC(C)(C)c1cc(NC(=O)Nc2ccccc2OCCN2CCOCC2)n(-c2ccc(S(N)(=O)=O)cc2)n1` [28i, 4-(3-(tert-Butyl)-5-(3-(2-(2-morpholinoethoxy)phenyl)ureido)-1H-pyrazol-1-yl)benzenesulfonamide] showed an IC50 of more than 10 µM.

In the case of `CC(C)(C)c1cc(NC(=O)Nc2ccccc2OCCN2CCOCC2)n(-c2ccc(Cl)cc2)n1` [28e, 1-(3-(tert-Butyl)-1-(4-chlorophenyl)-1H-pyrazol-5-yl)-3-(2-(2-morpholinoethoxy)phenyl)urea], the IC50 is more than 10 µM. Consider `Cc1ccc(-n2nc(C(C)(C)C)cc2NC(=O)Nc2ccccc2OCCN2CCOCC2)cc1` [28a, 1-(3-(tert-Butyl)-1-(p-tolyl)-1H-pyrazol-5-yl)-3-(2-(2-morpholinoethoxy)phenyl)urea], for which the IC50 is more than 10 µM.

For the compound `CC(C)(C)c1cc(NC(=O)Nc2ccccc2Oc2ccc3[nH]ncc3c2)n(-c2ccc(Cl)cc2)n1` [29e, 1-(2-((1H-Indazol-5-yl)oxy)phenyl)-3-(3-(tert-butyl)-1-(4-chlorophenyl)-1H-pyrazol-5-yl)urea], the half-inhibitory concentration (IC50) was more than 10 µM. The compound `Cc1ccc(-n2nc(C(C)(C)C)cc2NC(=O)NCc2ccccc2OCCN2CCOCC2)cc1` [30b, 1-(3-(tert-Butyl)-1-(p-tolyl)-1H-pyrazol-5-yl)-3-(2-(2-morpholinoethoxy)benzyl)urea] showed a half-inhibitory concentration (IC50) of more than 3 µM. Same read-out and setting: in the case of `CC(C)(C)c1cc(NC(=O)Nc2ccccc2Oc2ccc3[nH]ncc3c2)n(-c2ccccc2)n1` [29b, 1-(2-((1H-Indazol-5-yl)oxy)phenyl)-3-(3-(tert-butyl)-1-phenyl-1H-pyrazol-5-yl)urea] it was more than 10 µM; in that of `CC(C)(C)c1cc(NC(=O)Nc2ccccc2OCCN2CCOCC2)n(-c2ccc(Br)cc2)n1` [28f, 1-(1-(4-Bromophenyl)-3-(tert-butyl)-1H-pyrazol-5-yl)-3-(2-(2-morpholinoethoxy)phenyl)urea], more than 10 µM. `CC(C)(C)c1cc(NC(=O)NCc2ccccc2OCCN2CCOCC2)n(-c2ccccc2)n1` [30d, 1-(3-(tert-Butyl)-1-phenyl-1H-pyrazol-5-yl)-3-(2-(2-morpholinoethoxy)benzyl)urea] registered a 50% inhibitory concentration (IC50) of more than 3 µM. On the same count and under the same terms, in the case of `CC(C)(C)c1cc(NC(=O)Nc2ccccc2Oc2ccc3[nH]ncc3c2)n(-c2ccc(Br)cc2)n1` [29f, 1-(2-((1H-Indazol-5-yl)oxy)phenyl)-3-(1-(4-bromophenyl)-3-(tert-butyl)-1H-pyrazol-5-yl)urea] it was more than 10 µM; in that of `CC(C)(C)c1cc(NC(=O)Nc2ccccc2OCCN2CCOCC2)n(-c2ccccc2)n1` [28b, 1-(3-(tert-Butyl)-1-phenyl-1H-pyrazol-5-yl)-3-(2-(2-morpholinoethoxy)phenyl)urea], more than 10 µM. The compound `CC(C)(C)c1cc(NC(=O)NCc2ccccc2OCCN2CCOCC2)n(-c2ccc(Cl)cc2)n1` [30a, 1-(3-(tert-Butyl)-1-(4-chlorophenyl)-1H-pyrazol-5-yl)-3-(2-(2-morpholinoethoxy)benzyl)urea] had a half-inhibitory concentration (IC50) of more than 3 µM. In turn, `CC(C)(C)c1cc(NC(=O)Nc2ccccc2Oc2ccc3[nH]ncc3c2)n(-c2ccc(F)cc2)n1` [29g, 1-(2-((1H-Indazol-5-yl)oxy)phenyl)-3-(3-(tert-butyl)-1-(4-fluorophenyl)-1H-pyrazol-5-yl)urea] returned an IC50 of more than 10 µM. As for `CC(C)(C)c1cc(NC(=O)Nc2ccccc2Oc2ccc3[nH]ncc3c2)n(-c2ccc([N+](=O)[O-])cc2)n1` [29h, 1-(2-((1H-Indazol-5-yl)oxy)phenyl)-3-(3-(tert-butyl)-1-(4-nitrophenyl)-1H-pyrazol-5-yl)urea], the concentration for half-maximal inhibition (IC50) was more than 10 µM.

For the compound `CC(C)(C)c1cc(NC(=O)NCc2ccccc2OCCN2CCOCC2)n(-c2ccc(S(N)(=O)=O)cc2)n1` [30c, 4-(3-(tert-Butyl)-5-(3-(2-(2-morpholinoethoxy)benzyl)ureido)-1H-pyrazol-1-yl)benzenesulfonamide], the IC50 is more than 3 µM.

Turning to `COc1ccc(-n2nc(C(C)(C)C)cc2NC(=O)Nc2ccccc2OCCN2CCOCC2)cc1` [28d, 1-(3-(tert-Butyl)-1-(4-methoxyphenyl)-1H-pyrazol-5-yl)-3-(2-(2-morpholinoethoxy)phenyl)urea], the IC50 was more than 10 µM.

Another test has as its target MAPK14/p38α (Homo sapiens, UniProt Q16539). In words: p38α MAP kinase activity, phosphorylation of ATF-2 (TR-FRET). Type of test: biochemical. The settings on record: enzyme, GFP-ATF2 substrate, 90 μM ATP. On the procedure: Kinase reaction buffer was composed of 50 mM HEPES (pH 7.5), 0.01% BRIJ-35, 10 mM MgCl2 and 1 mM EGTA. Prepared MAPK14/p38α in 1× kinase buffer with concentration at 500 ng/mL. A 2-fold serial dilution was performed using 1× kinase buffer from 500 ng/mL using 16 dose points. […] The reaction was started by adding 5 μL of the GFP-ATF2(19–96) substrate and ATP solution into each well of the assay plate. The final starting concentration of MAPK14/p38α was 250ng/ml, and the final GFP-ATF2 and ATP concentrations were 0.4 μM and 90 μM, respectively. The assay plate was sealed and incubated for 1 hour at room temperature (RT). Antibody solution (1 mL) was prepared from 20 mM EDTA and 4 nM Tb-antipATF2 (pThr71) antibody in TR-FRET dilution buffer. Antibody solution (10 μL) was added into each well of the assay plate and mixed gently. The final EDTA concentration was 10 mM, and the final Tb-antipATF2 (pThr71) concentration was 2 nM. The assay plate was sealed and incubated for 30 minutes at RT.
Inhibitor in 0.5% DMSO (2 μL/well) at 5-fold the final assay concentration was added into a 384-well assay plate. […] MAPK14/p38α (4 μL/well) was added to each well of the 384-well assay plate and incubated for 15 min at RT. To start the reaction, substrate GFP-ATF2 (19–96) and ATP (4 μL/well) were added into kinase reaction buffer. […] The resulting TR-FRET emission ratio was plotted against the concentration of inhibitor, and the data fitted to a sigmoidal dose-response curve with a variable slope. The IC50 concentration was calculated from the curve.
(In general: In TR-FRET formats the signal depends on donor and acceptor labels being close together.)
For the compound `CC(C)(C)c1cc(NC(=O)NCc2cc(F)ccc2Oc2ccc3[nH]ncc3c2)n(-c2ccc([N+](=O)[O-])cc2)n1` [25i, 1-(2-((1H-Indazol-5-yl)oxy)-5-fluorobenzyl)-3-(3-(tert-butyl)-1-(4-nitrophenyl)-1H-pyrazol-5-yl)urea], the IC50 came to 0.00143 ± 8e-05 µM. For `CC(C)(C)c1cc(NC(=O)Nc2ccc(Oc3ccc4[nH]ncc4c3)c3c2OCC=C3)n(-c2ccc(F)cc2)n1` [26e, 1-(5-((1H-Indazol-5-yl)oxy)-2H-chromen-8-yl)-3-(3-(tert-butyl)-1-(4-fluorophenyl)-1H-pyrazol-5-yl)urea], the half-inhibitory concentration (IC50) worked out at 0.00596 ± 1e-05 µM.

Staying with this test, now noted: enzyme; bound given in µM.
`Cc1ccc(-n2nc(C(C)(C)C)cc2NC(=O)Nc2ccccc2OCCN2CCOCC2)cc1` [28a, 1-(3-(tert-Butyl)-1-(p-tolyl)-1H-pyrazol-5-yl)-3-(2-(2-morpholinoethoxy)phenyl)urea] registered a half-maximal inhibitory concentration (IC50) of more than 10 µM. Consider `CC(C)(C)c1cc(NC(=O)Nc2ccccc2Oc2ccc3[nH]ncc3c2)n(-c2ccccc2)n1` [29b, 1-(2-((1H-Indazol-5-yl)oxy)phenyl)-3-(3-(tert-butyl)-1-phenyl-1H-pyrazol-5-yl)urea], for which the half-inhibitory concentration (IC50) is more than 10 µM. On to `CC(C)(C)c1cc(NC(=O)Nc2ccccc2OCCN2CCOCC2)n(-c2ccccc2)n1` [28b, 1-(3-(tert-Butyl)-1-phenyl-1H-pyrazol-5-yl)-3-(2-(2-morpholinoethoxy)phenyl)urea], for which the IC50 was more than 10 µM.

One may read the IC50 as the concentration that inhibits the measured activity by half.
